Laboratory results published in publication PMC9556331, “Structural basis for directional chitin biosynthesis” (Nature, 2022).
Residue numbers refer to the chain shown, from its start. In names and notes the source's numbering stands.

Columns and labels:
chitin synthase PsChs1 [1] = target: T1, chitin synthase PsChs1 (Phytophthora sojae, UniProt G4Z2L3); experiment: cryo-EM structure ([…] Å) plus enzyme inhibition kinetics (competitive Ki); assay type: biochemical
T1 construct: gene CHS1; full-length PsChs1 with C-terminal tandem twin Strep tag and Flag tag; residues 40-860 built, 743-758 disordered; homodimer

chitin synthase PsChs1 [2] = target: T1, chitin synthase PsChs1; experiment: cryo-EM structure ([…] Å); assay type: binding
[3] = target: the molecule itself; experiment: AUC; purified recombinant PsChs1 in the presence of detergent; molar mass of the main peak compared with the 107 kDa monomer
[4] = target: the molecule itself; experiment: cryo-EM structure; purified protein at about 5 mg/ml in digitonin buffer; apo or with UDP-GlcNAc, UDP/(GlcNAc)3, UDP or NikZ; C2 symmetry imposed

Molecule: C[C@@H]([C@H](N)C(=O)N[C@H](C(=O)O)[C@H]1O[C@@H](n2ccc(=O)[nH]c2=O)[C@H](O)[C@@H]1O)[C@H](O)c1ccc(O)cn1 [NikZ, nikkomycin Z]
- Ki (chitin synthase PsChs1 [1]): 151 ± 4.8 µM

Molecule: O=c1ccn([C@@H]2O[C@H](COP(=O)(O)OP(=O)(O)O)[C@@H](O)[C@H]2O)c(=O)[nH]1 [UDP]
- cryo-EM structure (3.1 Å) (chitin synthase PsChs1 [2]): The UDP-bound dimeric PsChs1 structure represents its nascent chitin-released state

B1: Phytophthora sojae chitin synthase PsChs1 (enzyme)
chain: MSGAPPPSSGFAPRSYGQQPLSHAPRSSMMSVEYDGIPLPPPSIRSCGSQQYVTSYIPTGAAFPPSSVQDMISSMKSYASATDLVRTYSEIPSVEEALSTLDRAAAALNARRYRDALKLYLEGGYAMANVAERQANPKICNLLTSKGFETLNWCARLCDWIEGRIKEKHPRPGVHKVGIPVSNWDEDWVGPFMDEEEARRMWYTPVYCPHPIDFSNLGYRLRCVETGRRPRLMICITMYNEGPQQLKATLKKLANNLAYLKEQMPGDEKSLTGAFAGDDVWQNVLVCIVADGREQVHPKTLDYLEAIGLYDEDLLTINSAGIGAQCHLFEHTLQLSVNGKCLLPIQTVFALKENKASKLDSHHWYFNAFAEQIQPEYTAVMDVGTMLTKSALYHLLFAFERNHQIGGACGQLTVDNPFENLSNWVISAQHFEYKISNILDKSLESCFGFISVLPGAFSAYRYEAIRGAPLDAYFQTLNIELDVLGPFIGNMYLAEDRILSFEVVARKNCNWTMHYVKDAVARTDVPHDLVGLISQRKRWLNGAFFATLFSIWNWGRIYSESKHTFVRKMAFLVFYVYHLLYTAFGFFLPANLYLALFFIVFQGFQQNRLEFIDTSEYSQTVLDCAVYIYNFSYLFGLLMLIIIGLGNNPKHMKLTYYFVGAVFGLMMMLSSLVGAGIFFSTPATVHSIVVSILTVGVYFIASALHGEVHHIFMTFTHYTALIPSFVNIFTIYSFCNLQDLSWGTKGLHDDPLLAASLDETEKGDFKDVIAKRRALEELRREEKERVENRKKNFEAFRTNVLLTWAFSNLIFALFVVYFASSSTYMPVLYIFVASLNTCRLLGSIGHWVYIHTEGLRGRVIDKSECGNGTGRYPQNSYVQLEEHYAALAEDQRTYASGRTNASVRTVNDVSSAA
notes: also called native PsChs1; wild-type PsChs1
- stoichiometry N [3]: 2

B2: PsChs1 E495A (used for the UDP-GlcNAc-bound structure) (enzyme)
chain: B1 chain with E495A
notes: source: HEK293F, transiently transfected, purified as the native PsChs1 (Strep-TactinXT, anti-Flag M2 resin, SEC)
- stoichiometry N [4]: 2
